From patent US4863918A, “Enamine quaternary compounds, methods of making and their use as muscle relaxants” (BOC, Inc., priority 1988, dated 1989)

Each compound was assayed on paw twitch (assay: Twitch depression (muscle relaxant effect) in anesthetized rabbits; rabbit paw twitch). Conditions: Table VI, rabbit paw twitch, at indicated dose.
Type: in vivo, New Zealand White rabbits
Method: [The procedure below names another organism; the source lists this organism under the same test.] Mongrel dogs were injected with 50 mg/kg of pentobarbital until the onset of anesthesia as determined by the eyeblink reflex test. The injectable solutions prepared above were administered intravenously to the anesthesized mongrel dogs and measurements were made of the muscle relaxant effect including maximum twitch depression, onset, duration and recovery time in a clinically known manner. Each of the subjects were compared with a control animal receiving an injection of distilled water.
The same compound of the present invention as in
A number of compounds in accordance with the present invention were tested for their neuromuscular blockade Properties. Specifically, the acid addition salts of the compounds were dissolved in sterile water for injection.
In the case of `CC1CC(N2CCC3(CC2)OCC2(CO3)COC3(CCN(C4=CC(=[N+]5CCCC6(CC5)OCCO6)CC(C)C4)CC3)OC2)=CC(=[N+]2CCCC3(CC2)OCCO3)C1` (stereo not drawn) [compound 42], the Onset is reported as 75.6 s.
Work on `CC1(C)CC(N2CCC3(CC2)OCC2(CO3)COC3(CCN(C4=CC(=[N+]5CCCCCC5)CC(C)(C)C4)CC3)OC2)=CC(=[N+]2CCCCCC2)C1` [compound 44] yielded an Onset of 67.2 s.
`CC1(C)CC(N2CCC3(CC2)OCC2(CO3)COC3(CCN(C4=CC(=[N+]5CCCC5)CC(C)(C)C4)CC3)OC2)=CC(=[N+]2CCCC2)C1` [compound 46] was tested, and the Onset was 62.8 s.
Work on `CC1(C)CC(N2CCC3(CC2)OCC2(CO3)COC3(CCN(C4=CC(=[N+]5CCOCC5)CC(C)(C)C4)CC3)OC2)=CC(=[N+]2CCOCC2)C1` [compound 49] yielded an Onset of 58.8 s.
In the case of `CC1(C)CC(N2CCC3(CC2)OCC2(CO3)COC3(CCN(C4=CC(=[N+]5CCCCC5)CC(C)(C)C4)CC3)OC2)=CC(=[N+]2CCCCC2)C1` [compound 50], the Onset is reported as 59.9 s.
For `CC1(C)CC(N2CCC3(CC2)OCC2(CO3)COC3(CCN(C4=CC(=[N+](CC5CC5)CC(F)(F)F)CC(C)(C)C4)CC3)OC2)=CC(=[N+](CC2CC2)CC(F)(F)F)C1` [compound 51], the Onset was 51 s.
`CC1(C)CC(N2CCC3(CC2)OCC2(CO3)COC3(CCN(C4=CC(=[N+](CC5CC5)CC5CC5)CC(C)(C)C4)CC3)OC2)=CC(=[N+](CC2CC2)CC2CC2)C1` [compound 52] was tested, and the Onset was 48.5 s.
Work on `CC[N+](CCC1OCCO1)=C1C=C(N2CCC3(CC2)OCC2(CO3)COC3(CCN(C4=CC(=[N+](CC)CCC5OCCO5)CC(C)(C)C4)CC3)OC2)CC(C)(C)C1` [compound 53] yielded an Onset of 58.6 s.
For `CC[N+](CC)=C1C=C(N2CCC3(CC2)OCC2(CO3)COC3(CCN(C4=CC(=[N+](CC)CC)CC(C)C4)CC3)OC2)CC(C)C1` (stereo not drawn) [compound 54], the Onset was 51 s.
`CCC[N+](CC1CC1)=C1C=C(N2CCC3(CC2)OCC2(CO3)COC3(CCN(C4=CC(=[N+](CCC)CC5CC5)CC(C)C4)CC3)OC2)CC(C)C1` (stereo not drawn) [compound 56] was tested, and the Onset was 62.3 s.

Same assay, conditions: Table VI, rabbit paw twitch, at indicated dose; in s
For `CC1(C)CC(N2CCC3(CC2)OCC2(CO3)COC3(CCN(C4=CC(=[N+]5CCC(c6ccccc6)CC5)CC(C)(C)C4)CC3)OC2)=CC(=[N+]2CCC(c3ccccc3)CC2)C1` (stereo not drawn) [compound 31], the Onset was 105.6.
`CC1=C(N2CCC3(CC2)OCC2(CO3)COC3(CCN(C4=C(C)C(=[N+]5CCCCCC5)CC4)CC3)OC2)CCC1=[N+]1CCCCCC1` [compound 38] was tested, and the Onset was 100.0.
`CC1(C)CC(N2CCC3(CC2)OCC2(CO3)COC3(CCN(C4=CC(=[N+]5CCc6ccccc6C5)CC(C)(C)C4)CC3)OC2)=CC(=[N+]2CCc3ccccc3C2)C1` [compound 48] was tested, and the Onset was 113.5.

Same assay, conditions: Table VII, rabbit paw twitch, at indicated dose
`COC1C[N+](=C2C=C(N3CCCC4(C3)OCC3(CO4)COC4(CCCN(C5=CC(=[N+]6CCC(OC)(OC)C(OC)C6)CC(C)(C)C5)C4)OC3)CC(C)(C)C2)CCC1(OC)OC` (stereo not drawn) was tested, and the Onset was 44.4 s.
Work on `CC1(C)CC(N2CCCC3(C2)OCC2(CO3)COC3(CCCN(C4=CC(=[N+]5CCCC6(CC5)OCCO6)CC(C)(C)C4)C3)OC2)=CC(=[N+]2CCCC3(CC2)OCCO3)C1` (stereo not drawn) [No. 13] yielded an Onset of 36.5 s.
`CC[N+](CC1CC1)=C1C=C(N2CCCC3(C2)OCC2(CO3)COC3(CCCN(C4=CC(=[N+](CC)CC5CC5)CC(C)(C)C4)C3)OC2)CC(C)(C)C1` (stereo not drawn) [No. 17] was tested, and the Onset was 39.3 s.
Compound `CC1CCC[N+](=C2C=C(N3CCCC4(C3)OCC3(CO4)COC4(CCCN(C5=CC(=[N+]6CCCC(C)C6)CC(C)(C)C5)C4)OC3)CC(C)(C)C2)C1` (stereo not drawn) [No. 20] has an Onset of 44.9 s.
`CC[N+](CCC1OCCO1)=C1C=C(N2CCCC3(C2)OCC2(CO3)COC3(CCCN(C4=CC(=[N+](CC)CCC5OCCO5)CC(C)(C)C4)C3)OC2)CC(C)(C)C1` (stereo not drawn) [No. 21] was tested, and the Onset was 33.3 s.

Same assay, conditions: Table VIII, rabbit paw twitch, at indicated dose
For `CC1C[N+](=C2C=C(N3CCCC4(CC3)OCC3(CO4)COC4(CCCN(C5=CC(=[N+]6CCC7(OCCO7)C(C)C6)CC(C)(C)C5)CC4)OC3)CC(C)(C)C2)CCC12OCCO2` (stereo not drawn) [No. 11], the Onset was 62.1 s.
In the case of `CC1(C)CC(N2CCCC3(CC2)OCC2(CO3)COC3(CCCN(C4=CC(=[N+]5CCCCCC5)CC(C)(C)C4)CC3)OC2)=CC(=[N+]2CCCCCC2)C1` (stereo not drawn) [No. 13], the Onset is reported as 88.3 s.
For `CC1(C)CC(N2CCCC3(CC2)OCC2(CO3)COC3(CCCN(C4=CC(=[N+]5CCCC6(C5)OCCO6)CC(C)(C)C4)CC3)OC2)=CC(=[N+]2CCCC3(C2)OCCO3)C1` (stereo not drawn) [No. 14], the Onset was 44.5 s.
